# In article PMC11693508, “Pharmacokinetics, bioavailability, and tissue distribution of MRTX1133 in rats using UHPLC-MS/MS” (Frontiers in Pharmacology, 2024):
# Where two headings read alike, the source gives them in different places.
# Legend:
# [1] = set-up: method as in Wang et al. (2022); settings: CD-1 mice, intraperitoneal 30 mg/kg, ref Wang et al. (2022), cited from earlier work
# [2] = system: tumor models, including pancreatic and colorectal cancer; set-up: method as in Kataoka et al., 2023; Drosten and Barbacid, 2022; settings: multiple in vivo tumor models, ref Kataoka et al., 2023, Drosten and Barbacid, 2022; cited from earlier work
# [3] = Tissue distribution in rats after single intravenous administration; format: in vivo, Sprague-Dawley rats; settings: rat, intravenous 5 mg/kg; for concentration at 2 h: after 2 h; for concentration at 6 h: after 6 h
# Experimental: (§1) The distribution of MRTX1133 in the tissues was performed using 25 rats with a single intravenous administration of MRTX1133 at 5 mg kg^-1. The blood samples were collected from abdominal aorta at 0.5 h, 1 h, 2 h, 6 h, and 24 h (five rats at each time point), then the organs such as the heart, liver, spleen, lung, kidney, intestine, and pancreas were immediately collected. The organs were washed with cold physiological saline (4°C), they were weighed and homogenized in cold saline solution (1:3, w/v). The homogenized samples were treated according to the method described in the sample preparation section. The excretion of MRTX1133 in the urine was also investigated by placing the rats in metabolic cages after intravenous administration of MRTX1133 at 5 mg kg^-1 (one rat in each cage), the urine and feces were collected at 2 h, 6 h and 24 h after administration (five rats at each time point), and the content of MRTX1133 in urine and feces was detected by the LC-MS method.
# [4] = Stability of MRTX1133 in rat plasma and tissue homogenates under different storage conditions; format: physicochemical; settings: for Post-processing stability Accuracy / Short-term stability Accuracy / −80°C for 14 days Accuracy / Freeze-thaw stability Accuracy: n = 6; for −80°C for 14 days Accuracy: long-term; for Freeze-thaw stability Accuracy: three freeze-thaw cycles −20°C to 25°C
# Experimental: The stability of MRTX1133 was determined by analyzing LQ, MQ, and HQ samples under different storage conditions, which included three freeze-thaw stability (from −20°C to 25°C), long-term stability (−80°C for 14 days), short-term stability (25°C for 6 h), and post-processing stability (4°C for 24 h). The samples concentrations were compared with the freshly prepared QC samples and were considered stable if the accuracy were 85%–115% and RSD were ±15%.
# [5] = Excretion in urine and feces of rats after intravenous administration; format: in vivo, Sprague-Dawley rats; settings: rat, intravenous 5 mg/kg; for excretion through the kidney as prototype drug (urine): mean ± SD, n = 5
# Experimental: as §1
# [6] = system: KRAS (G12D); set-up: method as in Wang et al., 2022; settings: in vitro in cell culture; ref Wang et al., 2022; cited from earlier work
# [7] = rat intestine homogenate, 4.22 ng/mL
# [8] = rat intestine homogenate, 21.12 ng/mL
# [9] = rat kidney homogenate, 21.12 ng/mL
# [10] = rat kidney homogenate, 211.20 ng/mL
# [11] = rat kidney homogenate, 1,056.00 ng/mL
# [12] = rat liver homogenate, 21.12 ng/mL
# [13] = rat liver homogenate, 211.20 ng/mL
# [14] = rat liver homogenate, 2,112.00 ng/mL
smiles,measurement,setting,value
C#Cc1c(F)ccc2cc(O)cc(-c3ncc4c(N5CC6CCC(C5)N6)nc(OC[C@@]56CCCN5C[C@H](F)C6)nc4c3F)c12 [MRTX1133],plasma concentration,[1]; 4 h,"~1,000 ng mL^-1"
same,plasma concentration,[1]; 8 h,~100 ng/mL
same,plasma concentration,[1]; 24 h,approximately 50 ng mL^-1
same,Cmax,[1]; at 1 h,"approximately 7,000 ng mL^-1"
same,antitumor effect in vivo,[2],induces tumor regression
same,concentration at 2 h,"[3]; Sprague-Dawley, heart, n = 5, read-out: highest concentration in heart",879 ± 450 ng/g
same,concentration at 2 h,"[3]; Sprague-Dawley, kidney, n = 5, read-out: highest concentration in kidney",2580 ng/g
same,concentration at 1 h,"[3]; Sprague-Dawley, liver, at 1 h, n = 5, read-out: highest concentration in liver",5360 ng/g
same,concentration at 2 h,"[3]; Sprague-Dawley, lung, n = 5, read-out: highest concentration in lung",1230 ng/g
same,concentration at 6 h,"[3]; Sprague-Dawley, pancreas, n = 5, read-out: highest concentration in pancreas",156 ± 34.2 ng/g
same,concentration at 6 h,"[3]; Sprague-Dawley, spleen, n = 5, read-out: highest concentration in spleen",1860 ± 224 ng/g
same,detection in testis,[3],no MRTX1133
same,"concentration in liver, spleen, kidney and lung compared with plasma",[3]; 2 h after administration,higher than the concentration of the drug in plasma
same,detection in organs at 24 h,"[3]; liver, kidney, lung, spleen, heart, pancreas (except intestine), 24 h",still detectable
same,tissue distribution,"[3]; liver, kidney, lung, spleen, heart, pancreas, intestine",widely distributed
same,stability in plasma samples and homogenates,"[4]; 25°C for 6 h, 4°C for 24 h, three freeze-thaw cycles (−20°C to 25°C), −80°C for 14 days",stable
same,Post-processing stability Accuracy,"[4]; rat intestine homogenate, 4.22 ng/mL, 4°C for 24 h",98.23%
same,Short-term stability Accuracy,"[4]; rat intestine homogenate, 4.22 ng/mL, 25°C for 6 h",95.41%
same,−80°C for 14 days Accuracy,[4]; [7],93.31%
same,Freeze-thaw stability Accuracy,[4]; [7],95.83%
same,Post-processing stability Accuracy,"[4]; rat intestine homogenate, 21.12 ng/mL, 4°C for 24 h",98.14%
same,Short-term stability Accuracy,"[4]; rat intestine homogenate, 21.12 ng/mL, 25°C for 6 h",96.69%
same,−80°C for 14 days Accuracy,[4]; [8],92.54%
same,Freeze-thaw stability Accuracy,[4]; [8],94.42%
same,Short-term stability Accuracy,"[4]; rat intestine homogenate, 105.60 ng/mL, 25°C for 6 h",94.97%
same,−80°C for 14 days Accuracy,"[4]; rat intestine homogenate, 105.60 ng/mL",90.35%
same,Post-processing stability Accuracy,"[4]; rat kidney homogenate, 21.12 ng/mL, 4°C for 24 h",101.18%
same,Short-term stability Accuracy,"[4]; rat kidney homogenate, 21.12 ng/mL, 25°C for 6 h",103.01%
same,−80°C for 14 days Accuracy,[4]; [9],95.23%
same,Freeze-thaw stability Accuracy,[4]; [9],95.07%
same,Post-processing stability Accuracy,"[4]; rat kidney homogenate, 211.20 ng/mL, 4°C for 24 h",98.13%
same,Short-term stability Accuracy,"[4]; rat kidney homogenate, 211.20 ng/mL, 25°C for 6 h",97.29%
same,−80°C for 14 days Accuracy,[4]; [10],92.7%
same,Freeze-thaw stability Accuracy,[4]; [10],95.58%
same,Post-processing stability Accuracy,"[4]; rat kidney homogenate, 1,056.00 ng/mL, 4°C for 24 h",95.47%
same,Short-term stability Accuracy,"[4]; rat kidney homogenate, 1,056.00 ng/mL, 25°C for 6 h",97.04%
same,−80°C for 14 days Accuracy,[4]; [11],91.34%
same,Freeze-thaw stability Accuracy,[4]; [11],93.72%
same,Post-processing stability Accuracy,"[4]; rat liver homogenate, 21.12 ng/mL, 4°C for 24 h",104.23%
same,Short-term stability Accuracy,"[4]; rat liver homogenate, 21.12 ng/mL, 25°C for 6 h",101.44%
same,−80°C for 14 days Accuracy,[4]; [12],96.4%
same,Freeze-thaw stability Accuracy,[4]; [12],97.72%
same,Post-processing stability Accuracy,"[4]; rat liver homogenate, 211.20 ng/mL, 4°C for 24 h",105.35%
same,Short-term stability Accuracy,"[4]; rat liver homogenate, 211.20 ng/mL, 25°C for 6 h",105.89%
same,−80°C for 14 days Accuracy,[4]; [13],94.88%
same,Freeze-thaw stability Accuracy,[4]; [13],96.69%
same,Post-processing stability Accuracy,"[4]; rat liver homogenate, 2,112.00 ng/mL, 4°C for 24 h",97.47%
same,Short-term stability Accuracy,"[4]; rat liver homogenate, 2,112.00 ng/mL, 25°C for 6 h",98.17%
same,−80°C for 14 days Accuracy,[4]; [14],93.33%
same,Freeze-thaw stability Accuracy,[4]; [14],92.38%
same,Post-processing stability Accuracy,"[4]; rat plasma, 4.22 ng/mL, 4°C for 24 h",107.16%
same,Short-term stability Accuracy,"[4]; rat plasma, 4.22 ng/mL, 25°C for 6 h",108.92%
same,−80°C for 14 days Accuracy,"[4]; rat plasma, 4.22 ng/mL",103.66%
same,Freeze-thaw stability Accuracy,"[4]; rat plasma, 4.22 ng/mL",101.64%
same,Post-processing stability Accuracy,"[4]; rat plasma, 105.60 ng/mL, 4°C for 24 h",94.98%
same,Short-term stability Accuracy,"[4]; rat plasma, 105.60 ng/mL, 25°C for 6 h",95.35%
same,−80°C for 14 days Accuracy,"[4]; rat plasma, 105.60 ng/mL",90.18%
same,Freeze-thaw stability Accuracy,"[4]; rat plasma, 105.60 ng/mL",92.05%
same,Post-processing stability Accuracy,"[4]; rat plasma, 1,056.00 ng/mL, 4°C for 24 h",92.05%
same,Short-term stability Accuracy,"[4]; rat plasma, 1,056.00 ng/mL, 25°C for 6 h",92.49%
same,−80°C for 14 days Accuracy,"[4]; rat plasma, 1,056.00 ng/mL",90.23%
same,Freeze-thaw stability Accuracy,"[4]; rat plasma, 1,056.00 ng/mL",90.04%
same,excretion through the kidney as prototype drug (urine),[5]; 6 h,10.43% ± 2.89%
same,"excretion through the kidney as prototype drug (urine), range",[5]; 6 h,6.53%–13.54%
same,excretion through the kidney as prototype drug (urine),"[5]; 24 h, 5 mg/kg",22.59% ± 3.22%
same,"excretion through the kidney as prototype drug (urine), range",[5]; 24 h,17.60%–25.92%
same,MRTX1133 in feces,[5]; feces 24 h,no MRTX1133 was found
same,potency,[6],single digit nanomolar
same,selectivity for KRAS (G12D) compared with wild-type KRAS,[6],more than 1000 fold
